From patent US11780845B2 (Relay Therapeutics, Inc., priority 2019, dated 2023) come the findings set out here.

The test system of one experiment is SNU-16. Description: Cell SNU-16 assay. Format: cell-based. The settings on record: Homo sapiens, SNU-16, SNU-16 cells.
The target of a further experiment is FGFR2 (Homo sapiens (Human), UniProt P21802). Description: Biochemical FGFR2 Caliper assay.

Structures are written as SMILES.

FGFR2, sequence (P21802 22-821): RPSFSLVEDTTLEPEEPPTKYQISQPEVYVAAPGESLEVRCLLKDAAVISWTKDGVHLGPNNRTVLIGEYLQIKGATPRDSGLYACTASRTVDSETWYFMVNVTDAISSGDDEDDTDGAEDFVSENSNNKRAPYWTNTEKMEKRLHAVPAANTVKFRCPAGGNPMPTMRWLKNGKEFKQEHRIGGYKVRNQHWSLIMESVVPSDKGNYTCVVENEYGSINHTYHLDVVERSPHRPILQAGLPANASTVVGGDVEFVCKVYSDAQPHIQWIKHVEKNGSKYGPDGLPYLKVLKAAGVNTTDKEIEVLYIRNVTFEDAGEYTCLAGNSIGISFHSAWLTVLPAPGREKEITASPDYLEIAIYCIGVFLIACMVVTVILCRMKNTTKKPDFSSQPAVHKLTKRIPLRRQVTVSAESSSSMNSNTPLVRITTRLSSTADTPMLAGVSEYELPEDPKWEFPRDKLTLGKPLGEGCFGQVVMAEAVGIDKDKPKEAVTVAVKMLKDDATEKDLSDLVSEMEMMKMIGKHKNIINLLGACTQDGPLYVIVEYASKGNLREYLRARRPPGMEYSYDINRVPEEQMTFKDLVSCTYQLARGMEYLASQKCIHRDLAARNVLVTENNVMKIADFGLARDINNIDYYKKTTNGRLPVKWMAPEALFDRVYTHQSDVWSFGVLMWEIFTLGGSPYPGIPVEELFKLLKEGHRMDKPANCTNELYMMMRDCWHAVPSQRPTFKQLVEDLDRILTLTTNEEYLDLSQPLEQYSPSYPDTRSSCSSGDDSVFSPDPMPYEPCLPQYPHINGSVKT

On to `C#Cc1ncc(-c2c(-c3ccc(Oc4nccc(C)n4)cn3)c3c(N)ncnc3n2C)c(C)c1F` [Example 1328], for which the IC50 (as a rule, the midpoint of a concentration-inhibition curve) in the experiment with SNU-16 was at most 100 nM; on FGFR2, below 100 nM.
For the compound `C#Cc1ncc(-c2c(-c3ccc(Oc4nccc(C)n4)c(F)c3)c3c(N)ncnc3n2C(C)C)c(C)c1F` [Example 1334], the IC50 with SNU-16 was at most 100 nM; at FGFR2, below 100 nM.
On to `C#Cc1ncc(-c2c(-c3ccc(Oc4nccc(C)n4)c(F)c3)c3c(N)ncnc3n2C)c(OC)c1F` [Example 1336], for which the IC50 in the experiment on SNU-16 is at most 100 nM; on FGFR2 it was below 100 nM.
For the compound `C=C(C)C(=O)Nc1ccc(-c2c(C3=CC[C@]4(CC3)Cc3ccc(OC)nc3C4=O)c3c(N)ncnc3n2C)cc1` [Example 1337], the values for the IC50 in the experiment on SNU-16 and against FGFR2 were at most 100 nM and 100 to 250 nM, respectively.
For `C=C(C)C(=O)Nc1ccc(-c2c(C3=CC[C@@]4(CC3)Cc3ccc(OC)nc3C4=O)c3c(N)ncnc3n2C)cc1` [Example 1338], in that order: 1000 to 100000 nM and 1000 to 100000 nM.
`C#Cc1cc(C)c(-c2c(C3=CC[C@@H](C(=O)N4CCCC45CC5)CC3)c3c(N)ncnc3n2C)cn1` [Example 1341]: the figures for the IC50 in the experiment with SNU-16 and at FGFR2 were 250 to 1000 nM and below 100 nM, respectively.
For `C=C(C)C(=O)Nc1ccc(-c2c(-c3ccc4ncnn4c3)c3c(N)ncnc3n2C)cc1` [Example 1343], the IC50 with SNU-16 and at FGFR2 was 1000 to 100000 nM throughout.
`C=C(C)C(=O)Nc1ccc(-c2c(-c3ccc4nccn4c3)c3c(N)ncnc3n2C)cc1` [Example 1345]: the IC50 with SNU-16 and on FGFR2 was 1000 to 100000 nM throughout.
For the compound `C#Cc1nc2cc(-c3c(C4=CC[C@H](C(=O)N5CCC[C@H]5COC)CC4)c4c(N)ncnc4n3C)ccc2[nH]1` [Example 1346], the values for the IC50 in the experiment on SNU-16 and on FGFR2 were 250 to 1000 nM and below 100 nM, respectively.
For `C#Cc1cc(C)c(-c2c(C3=CC[C@@H](C(=O)N4CCC[C@H]4C)CC3)c3c(N)ncnc3n2C)c(F)n1` [Example 1347], in that order: at most 100 nM and below 100 nM.
`C=C(C)C(=O)Nc1ccc(-c2c(-c3ccn4ncnc4c3)c3c(N)ncnc3n2C)cc1` [Example 1350]: the IC50 in the experiment with SNU-16 and at FGFR2 was 1000 to 100000 nM throughout.
For `C=C(C)C(=O)Nc1ccc(-c2c(-c3cnc4nncn4c3)c3c(N)ncnc3n2C)cc1` [Example 1351], the IC50 with SNU-16 and on FGFR2 was 1000 to 100000 nM throughout.
On to `C=Cc1ccc(-c2c(-c3ccc4nn[nH]c4c3)c3c(N)ncnc3n2C)cn1` [Example 1352], for which the values for the 50% inhibitory concentration (IC50) in the experiment on SNU-16 and on FGFR2 were at most 100 nM and below 100 nM, respectively.
On to `C#Cc1ncc(-c2c(-c3ccc(Oc4nccc(C)n4)c(F)c3)c3c(N)ncnc3n2C)c(C)c1OC` [Example 1353], for which the IC50 is at most 100 nM in the experiment on SNU-16 and below 100 nM on FGFR2.
For the compound `C#Cc1cc(OC)c(-c2c(C3=CC[C@@H](C(=O)N4CCC[C@H]4C)CC3)c3c(N)ncnc3n2C)cn1` [Example 1354], the IC50 with SNU-16 was at most 100 nM; at FGFR2, below 100 nM.
The corresponding values for `C#Cc1cc(OC)c(-c2c(C3=CC[C@H](C(=O)N4CCC[C@H]4C)CC3)c3c(N)ncnc3n2C)cn1` [Example 1355] are at most 100 nM and below 100 nM.
As for `C#Cc1cc(C)c(-c2c(-c3ccc(Oc4nccc(C)n4)c(F)c3)c3c(Cl)ncnc3n2C)cn1` [Example 1356], the IC50 was at most 100 nM in the experiment with SNU-16 and below 100 nM at FGFR2.
For `C#Cc1cnc(-c2c(-c3ccc(Oc4nccc(C)n4)c(F)c3)c3c(N)ncnc3n2C)c(C)n1` [Example 1358], in that order: at most 100 nM and below 100 nM.
Turning to `C#Cc1nc2cc(-c3c(-c4ccc(Oc5nccc(C)n5)c(F)c4)c4c(N)ncnc4n3C)ccc2n1C` [Example 1359], the IC50 in the experiment with SNU-16 was at most 100 nM; on FGFR2, below 100 nM.
In the case of `C#Cc1cnc2cc(-c3c(-c4ccc(Oc5nccc(C)n5)c(F)c4)c4c(N)ncnc4n3C)ccc2n1` [Example 1363], the IC50 in the experiment with SNU-16 is at most 100 nM; against FGFR2, below 100 nM.
With `C#Cc1nc2cc(-c3c(-c4ccc(Oc5nccc(C)n5)c(F)c4)c4c(C)ncnc4n3C)ccc2[nH]1` [Example 1364], the IC50 is at most 100 nM in the experiment on SNU-16 and below 100 nM against FGFR2.
For the compound `C#Cc1ncc(-c2c(-c3ccc(Oc4nccc(C)n4)c(F)c3)c3c(N)ncnc3n2C)c(C)c1C` [Example 1365], the IC50 in the experiment with SNU-16 was at most 100 nM; against FGFR2, below 100 nM.
`C#Cc1cc(C)c(-c2c(-c3ccc(Oc4nc(C)cc(C)n4)c(F)c3)c3c(N)ncnc3n2C)cn1` [Example 1368]: the IC50 was at most 100 nM with SNU-16 and below 100 nM on FGFR2.
Regarding `C#Cc1nc2cc(-c3c(C4=CC[C@@H](C(=O)N5CCCC5)CC4)c4c(N)ncnc4n3C)ccc2n1C` [Example 1369], the values for the IC50 in the experiment with SNU-16 and against FGFR2 were at most 100 nM and below 100 nM, respectively.
Take `C=CC(=O)NC1CC=C(c2c(-c3ccc(Oc4nccc(C)n4)c(F)c3)c3c(N)ncnc3n2C)CC1` (centres unmarked) [Example 1370]: the IC50 in the experiment on SNU-16 and at FGFR2 was 100 to 250 nM each time.
Consider `C=C(C)C(=O)Nc1ccc(-c2c(-c3ccc(-c4ccccc4O)nc3)c3c(N)ncnc3n2C)cc1` [Example 1371], for which the IC50 was in the range of 250 to 1000 nM in the experiment with SNU-16 and 1000 to 100000 nM at FGFR2.
With `C=C(C)C(=O)Nc1ccc(-c2c(-c3ccc(-c4cccc(O)c4)nc3)c3c(N)ncnc3n2C)cc1` [Example 1372], the half-maximal inhibitory concentration (IC50) in the experiment on SNU-16 and at FGFR2 was 1000 to 100000 nM each time.
Take `C=C(C)C(=O)Nc1ccc(-c2c(-c3ccc(-c4noc(C5CC5)n4)c(O)c3)c3c(N)ncnc3n2C)cc1` [Example 1373]: the results for the IC50 in the experiment on SNU-16 and on FGFR2 were 100 to 250 nM and below 100 nM, respectively.
As to `COCC#Cc1cc(C)c(-c2c(-c3ccc(Oc4nccc(C)n4)c(F)c3)c3c(C)ncnc3n2C)cn1` [Example 1374], the IC50 lay in the range of 100 to 250 nM in the experiment on SNU-16 and 250 to 1000 nM at FGFR2.
For the compound `C#Cc1cc(F)c(-c2c(-c3ccc(Oc4nccc(C)n4)c(F)c3)c3c(C)ncnc3n2C)cn1` [Example 1375], the results for the IC50 in the experiment on SNU-16 and at FGFR2 were at most 100 nM and below 100 nM, respectively.
As to `C=CC(=O)N[C@@H]1CC=C(c2c(-c3ccc(Oc4nccc(C)n4)c(F)c3)c3c(N)ncnc3n2C)CC1` [Example 1376], the IC50 in the experiment on SNU-16 was in the range of 100 to 250 nM; against FGFR2 it was 250 to 1000 nM.
As for `C=CC(=O)N[C@H]1CC=C(c2c(-c3ccc(Oc4nccc(C)n4)c(F)c3)c3c(N)ncnc3n2C)CC1` [Example 1377], the IC50 in the experiment with SNU-16 and on FGFR2 was 250 to 1000 nM in each case.
With `COC/C=C/c1cc(C)c(-c2c(-c3ccc(Oc4nccc(C)n4)c(F)c3)c3c(N)ncnc3n2C)cn1` [Example 1378], the IC50 in the experiment on SNU-16 and at FGFR2 was 1000 to 100000 nM each time.
In the case of `C#Cc1ncc2ccc(-c3c(-c4ccc(Oc5nccc(C)n5)c(F)c4)c4c(N)ncnc4n3C)cc2n1` [Example 1379], the figures for the concentration for half-maximal inhibition (IC50) with SNU-16 and against FGFR2 were at most 100 nM and 100 to 250 nM, respectively.
For the compound `C#Cc1cc(C)c(-c2cn3ncnc(N)c3c2C2=CC[C@@H](C(=O)N3CCC[C@H]3C)CC2)cn1` [Example 1380], the IC50 in the experiment with SNU-16 and against FGFR2 was 250 to 1000 nM throughout.
Consider `C#Cc1ncc(-c2c(-c3ccc(Oc4nccc(C)n4)c(F)c3)c3c(C)ncnc3n2C)cc1OC` [Example 1381], for which the figures for the IC50 in the experiment with SNU-16 and against FGFR2 were at most 100 nM and 100 to 250 nM, respectively.
Consider `COCC#Cc1cc(C)c(-c2c(C3=CC[C@H](C(=O)N4CCC[C@H]4C)CC3)c3c(N)ncnc3n2C)cn1` [Example 1382], for which the IC50 with SNU-16 was at most 100 nM; at FGFR2 it was below 100 nM.
With `COCC#Cc1cc(C)c(-c2c(C3=CC[C@@H](C(=O)N4CCC[C@H]4C)CC3)c3c(N)ncnc3n2C)cn1` [Example 1383], the IC50 with SNU-16 and at FGFR2 was 250 to 1000 nM throughout.
On to `C#Cc1cnc2ccc(-c3c(-c4ccc(Oc5nccc(C)n5)c(F)c4)c4c(N)ncnc4n3C)cc2n1` [Example 1384], for which the IC50 in the experiment on SNU-16 was 100 to 250 nM; on FGFR2, below 100 nM.
With `C#Cc1ncc2cc(-c3c(-c4ccc(Oc5nccc(C)n5)c(F)c4)c4c(N)ncnc4n3C)ccc2n1` [Example 1385], the results for the IC50 in the experiment with SNU-16 and against FGFR2 were at most 100 nM and below 100 nM, respectively.
Turning to `COCC#Cc1cc(C)c(-c2c(-c3ccc(Oc4nccc(C)n4)cc3)c3c(N)ncnc3n2C)cn1` [Example 1386], the IC50 in the experiment with SNU-16 is at most 100 nM; against FGFR2 it was below 100 nM.
As to `C#Cc1cc(C)c(-c2cn3ncnc(N)c3c2C2=CC[C@H](C(=O)N3CCC[C@H]3C)CC2)cn1` [Example 1387], the IC50 in the experiment on SNU-16 and against FGFR2 was 1000 to 100000 nM each time.
Take `C#Cc1nc2cc(-c3c(-c4ccc(Oc5nccc(C)n5)c(F)c4)c4c(N)ncnc4n3C)c(F)cc2n1C` [Example 1388]: the half-inhibitory concentration (IC50) with SNU-16 was at most 100 nM; on FGFR2, below 100 nM.
Take `C=C(C)C(=O)Nc1ccc(-c2c(-c3ccc(-c4cccc(O)c4)c(C#N)c3)c3c(N)ncnc3n2C)cc1` [Example 1389]: the IC50 was in the range of 250 to 1000 nM with SNU-16 and 1000 to 100000 nM at FGFR2.
The corresponding values for `C=C(C)C(=O)Nc1ccc(-c2c(-c3ccc4[nH]ncc4c3)c3c(N)ncnc3n2C)cc1` [Example 1390] are 1000 to 100000 nM and 1000 to 100000 nM.
For `C#Cc1cc2c(cn1)-c1c(-c3ccc(Oc4nccc(C)n4)cc3)c3c(N)ncnc3n1CCC2` [Example 1391], the IC50 with SNU-16 is at most 100 nM; on FGFR2, below 100 nM.
The corresponding values for `C#Cc1cc(C)c(-c2c(C3=CC[C@@]4(CC3)Cc3ccc(C)nc3O4)c3c(C)ncnc3n2C)cn1` [Example 1392] are 1000 to 100000 nM and 1000 to 100000 nM.
Turning to `C#Cc1cc(C)c(-c2c(C3=CC[C@@]4(CC3)Cc3ccc(C)nc3O4)c3c(N)ncnc3n2C)cn1` [Example 1393], the IC50 in the experiment on SNU-16 and against FGFR2 was 1000 to 100000 nM in each case.
With `C#Cc1cc(C)c(-c2c(C3=CC[C@@]4(CC3)Cc3ccc(C)nc3C4=O)c3c(N)ncnc3n2C)cn1` [Example 1394], the IC50 in the experiment on SNU-16 and at FGFR2 was 100 to 250 nM each time.
For the compound `C#Cc1nc2ccc(-c3c(-c4ccc(Oc5nccc(C)n5)c(F)c4)c4c(N)ncnc4n3C)cc2n1C` [Example 1395], the IC50 is at most 100 nM in the experiment on SNU-16 and below 100 nM on FGFR2.
`C#Cc1cc(C)c(-c2c(C3=CC[C@]4(CC3)Cc3ccc(C)nc3O4)c3c(C)ncnc3n2C)cn1` [Example 1396]: the figures for the IC50 in the experiment on SNU-16 and against FGFR2 were 1000 to 100000 nM and 250 to 1000 nM, respectively.
For `C#Cc1ncc(-c2c(-c3ccc(Oc4nccc(C)n4)c(F)c3)c3c(C)ncnc3n2C)c(C)c1OC` [Example 1397], the figures for the 50% inhibitory concentration (IC50) in the experiment on SNU-16 and at FGFR2 were at most 100 nM and 250 to 1000 nM, respectively.
